These results are taken from the supplement of paper PMC10331698.

Holding throughout (test): level (log10 ratio to DMSO vehicle control); higher = higher biomarker level / cell amount than vehicle control
Compound in experiment [1]: COC(=O)C(F)(F)C(F)(F)OC(F)(C(F)(F)F)C(F)(F)OC(F)=C(F)F [Methyl perfluoro(3-(1-ethenyloxypropan-2-yloxy)propanoate)]
The note with it: in DMSO. The protocol: (§1)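 BioMAP Diversity Plus panel of 12 human primary cell co-culture systems (3C, 4H, LPS, SAg, BT, BF4T, BE3C, CASM3C, HDF3CGF, KF3CT, MyoF, Mphg). Compounds were added 1 h before stimulation and left for 24 h (MyoF 48 h; BT 72 h for soluble read-outs or 6 d for IgG). Biomarkers were read by ELISA, cytotoxicity by SRB, PBMC viability and proliferation by Alamar Blue. Each well value was divided by the mean of 8 DMSO control wells on the same plate and log10 transformed; duplicate blinded samples were tested at 4 concentrations.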

Compound in experiment [2]: FC(F)(F)C(F)(F)C(F)(F)C(F)(F)C(F)(F)C(F)(F)C(F)(F)I [1-Iodopentadecafluoroheptane]
The note with it: in DMSO. As to the method: as §1

Compound in experiment [3]: FC(F)(F)C(F)(F)CNCC(F)(F)C(F)(F)F [Bis(1H,1H-perfluoropropyl)amine]
The note with it: in DMSO. As to the method: as §1

Compound in experiment [4]: O=S(=O)(O)CCC(F)(F)C(F)(F)C(F)(F)C(F)(F)C(F)(F)C(F)(F)F [6:2 Fluorotelomer sulfonic acid]
The note with it: in DMSO. The protocol:
as §1

Compound in experiment [5]: NS(=O)(=O)C(F)(F)C(F)(F)C(F)(F)C(F)(F)C(F)(F)C(F)(F)F [Perfluorohexanesulfonamide]
The note with it: in DMSO. As to the method:
as §1

Compound in the next experiment: NC(=O)C(F)(F)C(F)(F)C(F)(F)C(F)(F)F [Nonafluoropentanamide]
The note with it: in DMSO. As to the method: as §1

Compound in experiment [6]: C=CC(=O)OCC(F)(F)C(F)(F)C(F)(F)COC(=O)C=C [1H,1H,5H,5H-Perfluoro-1,5-pentanediol diacrylate]
The note with it: 6700 nM; in DMSO. As to the method: as §1

Compound in the next experiment: OCC(F)(F)C(F)(F)C(F)(F)CO [Hexafluoroamylene glycol]
The note with it: in DMSO. The protocol: as §1

± gives the standard deviation of the averaged measurements.

Consider MyoF:TIMP-1, for which the “level (log10)” value in experiment [1] (6700 nM) is 0.018 ± 0.011; in experiment [1] (20000 nM) it was 0.0085 ± 0.039; in experiment [2] (6700 nM), 0.049 ± 0.0057; in experiment [2] (20000 nM) it was -0.0605 ± 0.0092; in experiment [3] (6700 nM), -0.0225 ± 0.039; in experiment [3] (20000 nM), 0.0005 ± 0.067. Moreover, the “level (log10)” value in experiment [3] (60000 nM) was -0.0035 ± 0.0064; in experiment [4] (6700 nM), -0.032 ± 0.052; in experiment [4] (20000 nM), 0.031 ± 0.042; in experiment [4] (60000 nM), 0.097 ± 0.011; in experiment [5] (6700 nM) it was 0.019 ± 0.037; in experiment [5] (20000 nM), 0.017 ± 0.045. The “level (log10)” value was 0.021 ± 0.051 in experiment [5] (60000 nM); -0.019 ± 0.0057 with Nonafluoropentanamide (6700 nM); 0.01 ± 0.035 in the experiment with Nonafluoropentanamide (20000 nM); 0.001 ± 0.0085 with Nonafluoropentanamide (60000 nM); -0.002 ± 0.0014 in experiment [6]; -0.041 ± 0.05 with Hexafluoroamylene glycol (6700 nM). In addition, the entries for the “level (log10)” value with Hexafluoroamylene glycol (20000 nM) and in the experiment with Hexafluoroamylene glycol (60000 nM) were -0.0385 ± 0.06 and -0.039 ± 0.065, respectively.
Turning to HDF3CGF:M-CSF, the “level (log10)” value in experiment [1] (6700 nM) was 0.031 ± 0.058; in experiment [1] (20000 nM), -0.074 ± 0.069; in experiment [2] (6700 nM) it was -0.0165 ± 0.018; in experiment [2] (20000 nM), -0.0165 ± 0.0064; in experiment [3] (6700 nM), -0.0125 ± 0.025; in experiment [3] (20000 nM), -0.018 ± 0.031. Moreover, the “level (log10)” value was -0.029 ± 0.069 in experiment [3] (60000 nM); -0.0255 ± 0.073 in experiment [4] (6700 nM); -0.044 ± 0.068 in experiment [4] (20000 nM); -0.082 ± 0.085 in experiment [4] (60000 nM); 0.0285 ± 0.037 in experiment [5] (6700 nM); 0.0395 ± 0.035 in experiment [5] (20000 nM). The “level (log10)” value was -0.065 ± 0.038 in experiment [5] (60000 nM); -0.006 ± 0.017 with Nonafluoropentanamide (6700 nM); 0.01 ± 0.0014 with Nonafluoropentanamide (20000 nM); 0.0095 ± 0.021 in the experiment with Nonafluoropentanamide (60000 nM); -0.482 ± 0.027 in experiment [6]; -0.014 ± 0.02 with Hexafluoroamylene glycol (6700 nM). Moreover, the “level (log10)” value in the experiment with Hexafluoroamylene glycol (20000 nM) is -0.0235 ± 0.066; with Hexafluoroamylene glycol (60000 nM) it was -0.0495 ± 0.077.
With 4H:CD106/VCAM-1, the “level (log10)” value was -0.01 ± 0.0028 in experiment [1] (6700 nM); -0.0385 ± 0.0035 in experiment [1] (20000 nM); -0.018 ± 0.0042 in experiment [2] (6700 nM); -0.0005 ± 0.0035 in experiment [2] (20000 nM); 0.0125 ± 0.016 in experiment [3] (6700 nM); 0.006 ± 0.035 in experiment [3] (20000 nM). In addition, the “level (log10)” value was 0.0155 ± 0.039 in experiment [3] (60000 nM); -0.0415 ± 0.0078 in experiment [4] (6700 nM); -0.0245 ± 0.0021 in experiment [4] (20000 nM); -0.0625 ± 0.033 in experiment [4] (60000 nM); -0.0245 ± 0.011 in experiment [5] (6700 nM); -0.0165 ± 0.015 in experiment [5] (20000 nM). The “level (log10)” value in experiment [5] (60000 nM) is -0.08 ± 0.034; in the experiment with Nonafluoropentanamide (6700 nM), 0.003 ± 0.0028; in the experiment with Nonafluoropentanamide (20000 nM), 0.0095 ± 0.0064; with Nonafluoropentanamide (60000 nM) it was 0.008 ± 0.013; in experiment [6], -0.032 ± 0.045; with Hexafluoroamylene glycol (6700 nM) it was 0.0165 ± 0.029. The figures for the “level (log10)” value in the experiment with Hexafluoroamylene glycol (20000 nM) and with Hexafluoroamylene glycol (60000 nM) were 0.0075 ± 0.013 and 0.033 ± 0.017, respectively.
